Source: patent US20030040521A1, “Novel pyrimidin-4-enamine as fungicide” (priority 1998, published 2003)
Blank lines part the entries; values can stand above or below the compound they belong to.

Tests used:
Venturia Naegualis = assay: Residual-protective action against Venturia inaequalis on apples; format: in vivo; conditions: apple cuttings, spray mixture 0.02% a.i., infected 24 hours later, evaluation 12 days after infection
Description: Residual-protective Action Against Venturia Naegualis on Apples
Apple cuttings with fresh shoots 10 to 20 cm long are sprayed to drip point with a spray mixture (0.02% a.i.) prepared from a wettable powder formulation of the test compound. The plants are infected 24 hours later with a conidia suspension of the fungus. The plants are then incubated for 5 days at 90 to 100% relative humidity and stood in a greenhouse for a further […] at 20 to 24° C. Evaluation of the fungal infestation is made 12 days after infection. Compounds of Tables 1-4 show good activity, preferably the compounds 1.72, 1.81, 1.152, 1.160, 2.11, 3.6, 4.3, 4.5, 4.6, 4.27, 4.29, 4.30, 4.36, 4.38, 4.39, 4.43, 4.45, 4.62, 4.80 and 4.111.

[1] = tested on: Colletotrichum Lagenarium; assay: Action against Colletotrichum lagenarium on cucumbers; format: in vivo; conditions: cucumber plants, spray mixture 0.002%, infected 2 days later, evaluation 8 days after infection
Description: Action Against Colletotrichum Lagenarium on Cucumbers After a growth period of 2 weeks, cucumber plants are sprayed with an aqueous spray mixture (concentration 0.002%) prepared from a wettable powder formulation of the test compound and infected 2 days later with a spore suspension (1.5×10^5 spores/ml) of the fungus and incubated for 36 hours at 23° C. and high humidity. Incubation is then continued at normal humidity and c. 22° C. Evaluation of the fungal infestation is made 8 days after infection.

melting point: 58 to 60 °C
Compound: CCCCc1nc2ccc(Cl)cc2c(=NC)n1CCC [Compound 1.72]
residual-protective activity against Venturia on apples (fungal infestation) (Venturia Naegualis): good activity
activity against Colletotrichum lagenarium (fungal infestation) [1]: good to excellent activity

melting point: 53 to 55 °C
Compound: CCCOC1=Nc2ccc(Cl)cc2C(=CN)N1CCC [Compound 1.74, (6-chloro-2-propoxy-3-propyl-3H-quinazolin-4-ylidene)methylamine]

melting point: 61 to 64 °C
Compound: CCCCc1nc2ccc(Br)cc2c(=NC)n1CCC [Compound 1.81]
residual-protective activity against Venturia on apples (fungal infestation) (Venturia Naegualis): good activity
activity against Colletotrichum lagenarium (fungal infestation) [1]: good to excellent activity

melting point: 50 to 51 °C
Compound: CCCN=c1c2cc(Cl)ccc2nc(OCCC)n1CCC [Compound 1.152, (6-Chloro-2-propoxy-3-propyl-3H-quinazoline-4-ylidene)propylamine]
residual-protective activity against Venturia on apples (fungal infestation) (Venturia Naegualis): good activity
activity against Colletotrichum lagenarium (fungal infestation) [1]: good to excellent activity

Compound: CCCCN=c1c2cc(Cl)ccc2nc(OCCC)n1CCCC [Compound 1.160]
residual-protective activity against Venturia on apples (fungal infestation) (Venturia Naegualis): good activity
activity against Colletotrichum lagenarium (fungal infestation) [1]: good to excellent activity

Compound: CCCOc1nc2ncc(Br)cc2c(=N)n1CCC [Compound 2.11]
residual-protective activity against Venturia on apples (fungal infestation) (Venturia Naegualis): good activity
activity against Colletotrichum lagenarium (fungal infestation) [1]: good to excellent activity

Compound: CCCOc1nc2c(Br)csc2c(=NC)n1CCC [Compound 3.6]
residual-protective activity against Venturia on apples (fungal infestation) (Venturia Naegualis): good activity
activity against Colletotrichum lagenarium (fungal infestation) [1]: good to excellent activity

Compound: CCCCc1nc2sccc2c(=N)n1CCC [Compound 4.3]
residual-protective activity against Venturia on apples (fungal infestation) (Venturia Naegualis): good activity
activity against Colletotrichum lagenarium (fungal infestation) [1]: good to excellent activity

melting point: 61 to 63 °C
Compound: CCCOc1nc2sccc2c(=N)n1CCC [Compound 4.5]
residual-protective activity against Venturia on apples (fungal infestation) (Venturia Naegualis): good activity
activity against Colletotrichum lagenarium (fungal infestation) [1]: good to excellent activity

Compound: CCCCn1c(OCCC)nc2sccc2c1=N [Compound 4.6]
residual-protective activity against Venturia on apples (fungal infestation) (Venturia Naegualis): good activity
activity against Colletotrichum lagenarium (fungal infestation) [1]: good to excellent activity

Compound: CCCCc1nc2sc(Cl)cc2c(=NC)n1CCC [Compound 4.27, (2-Butyl-6-chloro-3-propyl-3H-thieno [2,3-d]pyrimidine-4-ylidene)methylamine]
residual-protective activity against Venturia on apples (fungal infestation) (Venturia Naegualis): good activity
activity against Colletotrichum lagenarium (fungal infestation) [1]: good to excellent activity

Compound: CCCCn1c(OCCC)nc2sc(Cl)cc2c1=NC [Compound 4.30]
residual-protective activity against Venturia on apples (fungal infestation) (Venturia Naegualis): good activity
activity against Colletotrichum lagenarium (fungal infestation) [1]: good to excellent activity

Compound: CCCOc1nc2sc(Br)cc2c(=NC)n1CCC [Compound 4.38, (6-Bromo-3-propyl-2-propoxy-3H-thieno[2,3-d]pyrimidine-4-ylidene)methylamine]
residual-protective activity against Venturia on apples (fungal infestation) (Venturia Naegualis): good activity
activity against Colletotrichum lagenarium (fungal infestation) [1]: good to excellent activity

Compound: CCCCn1c(OCCC)nc2sc(Br)cc2c1=NC [Compound 4.39]
residual-protective activity against Venturia on apples (fungal infestation) (Venturia Naegualis): good activity
activity against Colletotrichum lagenarium (fungal infestation) [1]: good to excellent activity

Compound: CCCCc1nc2sc(Cl)cc2c(=NCC)n1CCC [Compound 4.43]
residual-protective activity against Venturia on apples (fungal infestation) (Venturia Naegualis): good activity
activity against Colletotrichum lagenarium (fungal infestation) [1]: good to excellent activity

Compound: CCCOc1nc2sc(Cl)cc2c(=NCC)n1CCC [Compound 4.45]
residual-protective activity against Venturia on apples (fungal infestation) (Venturia Naegualis): good activity
activity against Colletotrichum lagenarium (fungal infestation) [1]: good to excellent activity

Compound: C=CCN=c1c2cc(Cl)sc2nc(OCCC)n1CCC [Compound 4.62]
residual-protective activity against Venturia on apples (fungal infestation) (Venturia Naegualis): good activity
activity against Colletotrichum lagenarium (fungal infestation) [1]: good to excellent activity

Compound: C#CCN=c1c2cc(Cl)sc2nc(OCCC)n1CCC [Compound 4.80]
residual-protective activity against Venturia on apples (fungal infestation) (Venturia Naegualis): good activity
activity against Colletotrichum lagenarium (fungal infestation) [1]: good to excellent activity

Compound: CCCOc1nc2sc(Cl)cc2c(=NCl)n1CCC [Compound 4.111]
residual-protective activity against Venturia on apples (fungal infestation) (Venturia Naegualis): good activity
activity against Colletotrichum lagenarium (fungal infestation) [1]: good to excellent activity

melting point: 103 to 104 °C
Compound: CCCCc1nc2sc(Cl)cc2c(=NC(=O)OC)n1CCCC [Compound 4.119, (6-chloro-2-butyl-3-butyl-3H-thieno[2,3-d]pyrimidine-4-ylidene)carbamic acid methylester]

melting point: 101 to 103 °C
Compound: CCCOc1nc2sc(Cl)cc2c(=NC(C)=O)n1CCC [Compound 4.137, N-(6-chloro-2-propoxy-3-propyl-3H-thieno[2,3-d]pyrimidine-4-ylidene)acetamide]

melting point: 98 to 99 °C
Compound: CCCCc1nc2sc(Cl)cc2c(=NC(C)=O)n1CCC [Compound 4.139, N-(6-chloro-2-butyl-3-propyl-3H-thieno[2,3-d]pyrimidine-4-ylidene)acetamide]
